What is called IC50 is the concentration that gives 50% inhibition.

Test [1] in a line: Inhibition activity against protein phosphatase 1 (PP1), activity taken from literature.
Test [2] can be described thus: Observed inhibition activity against protein phosphatase 1 (PP1).
Test [3] can be described thus: Observed inhibition activity of the compounds against protein phosphatases 1 (PP1).

In the case of `C/C=C1/C(=O)N[C@@H](C(=O)O)[C@H](C)C(=O)N[C@@H](CCCNC(=N)N)C(=O)N[C@@H](/C=C/C(C)=C/[C@H](C)[C@H](Cc2ccccc2)OC)[C@H](C)C(=O)N[C@@H](C(=O)O)CCC(=O)N1C` [(5R,6S,9S,12S,13S,16R)-2-Eth-(Z)-ylidene-9-(3-guanidino-propyl)-12-((1E,3E)-(5S,6S)-6-methoxy-3,5-dimethyl-7-phenyl-hepta-1,3-dienyl)-1,6,13-trimethyl-3,7,10,14,19-pentaoxo-1,4,8,11,15pentaaza-cyclononadecane-5,16-dicarboxylic acid], the values for the IC50 in test [1] and in test [2] were 3 nM and 0.42 nM, respectively.
In the case of `COC[C@@H]([C@H](O)[C@H](O)C(=O)N[C@H](C)C[C@H](C)c1nc(/C=C/CC2O[C@]3(CC(O)C2C)OC([C@H](C[C@H](O)[C@H](C)[C@H](O)[C@H](C)/C=C(C)/C(C)=C/C=C/C(C)=C\C#N)OC)[C@H](OP(=O)(O)O)C3(C)C)co1)N(C)C` (some centres undefined) [Calyculin C], it took 1.5 nM to reach half-maximal inhibition in test [3] (IC50).
Same read-out and setting: the value for `CO[C@H]([C@H](O)CC(=O)[C@@H](C)[C@@H](O)CC[C@@H](C)[C@@H]1O[C@]2(CC[C@@H](C)[C@H](CC[C@H](C)C(C)=O)O2)CC[C@@H]1C)[C@H](OC(=O)C[C@@H](O)C1=C(C)C(=O)OC1=O)C(C)C` [TAUTOMYCIN] was 0.67 nM.

These data come from BindingDB's records for doi:10.1021/jm960873x (University of California, 1997).
